Results taken from patent US8846719B2, “Isoxazolo-pyridine derivatives” (Roche Palo Alto LLC, priority 2007, dated 2014).

Biological target: human GABA A receptor α5β3γ2 (Homo sapiens (Human), UniProt P18507+P31644)
Experiment: [3H]flumazenil competition binding assay, human GABA A α5β3γ2 receptors expressed in HEK293 cells
Settings: human receptor; displacement of [3H]flumazenil (0.5 nM); means of two determinations; read-out: hKi GABAAa5
In short: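 Competition for [3H]flumazenil binding on membranes of HEK293 cells transiently transfected with human α5β3γ2 receptors, in Krebs-tris buffer pH 7.5.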

Row | SMILES | Ki [nM]
1 | Cc1onc(-c2ccccn2)c1COc1ccc(C(=O)NC(C)C)cn1 [Example 273, N-Isopropyl-6-(5-methyl-3-pyridin-2-yl-isoxazol-4-ylmethoxy)-nicotinamide] | 0.6
2 | Cc1onc(-c2ccccn2)c1COc1ccc(C(=O)NCC(F)(F)F)cn1 [Example 275, 6-(5-Methyl-3-pyridin-2-yl-isoxazol-4-ylmethoxy)-N-(2,2,2-trifluoro-ethyl)-nicotinamide] | 1.1
3 | Cc1onc(-c2ccccn2)c1COc1ccc(C(=O)N2CCS(=O)(=O)CC2)cn1 [Example 276, (1,1-Dioxo-1,6-thiomorpholin-4-yl)-[6-(5-methyl-3-pyridin-2-yl-isoxazol-4-ylmethoxy)-pyridin-3-yl]-methanone] | 10.1
4 | Cc1onc(-c2ccccn2)c1COc1ccc(C(=O)NCC2CC2)cn1 [Example 277, N-Cyclopropylmethyl-6-(5-methyl-3-pyridin-2-yl-isoxazol-4-ylmethoxy)-nicotinamide] | 1.5
5 | Cc1onc(-c2ccccn2)c1COc1ccc(C(=O)NC2CC2)cn1 [Example 278, N-Cyclopropyl-6-(5-methyl-3-pyridin-2-yl-isoxazol-4-ylmethoxy)-nicotinamide] | 1.6
6 | CNC(=O)c1ccc(OCc2c(-c3ccccn3)noc2C)nc1 [Example 279, Methyl-6-(5-methyl-3-pyridin-2-yl-isoxazol-4-ylmethoxy)-nicotinamide] | 1.3
7 | CCNC(=O)c1ccc(OCc2c(-c3ccccn3)noc2C)nc1 [Example 280, Ethyl-6-(5-methyl-3-pyridin-2-yl-isoxazol-4-ylmethoxy)-nicotinamide] | 1.1
8 | Cc1onc(-c2ccccn2)c1COc1ccc(C(=O)NC(C)(C)CO)cn1 [Example 281, (2-Hydroxy-1,1-dimethyl-ethyl)-6-(5-methyl-3-pyridin-2-yl-isoxazol-4-ylmethoxy)-nicotinamide] | 4
9 | Cc1onc(-c2ccccn2)c1COc1ccc(C(=O)N2CCSCC2)cn1 [Example 282, [6-(5-Methyl-3-pyridin-2-yl-isoxazol-4-ylmethoxy)-pyridin-3-yl]-thiomorpholin-4-yl-methanone] | 6.8
10 | Cc1onc(-c2ccccn2)c1COc1ccc(C(=O)O)cn1 [Example 283, 6-(5-Methyl-3-pyridin-2-yl-isoxazol-4-ylmethoxy)-nicotinic acid] | 22.3
11 | Cc1onc(-c2ccccn2)c1COc1ccc(C(=O)NCCO)cn1 [Example 284, (2-Hydroxy-ethyl)-6-(5-methyl-3-pyridin-2-yl-isoxazol-4-ylmethoxy)-nicotinamide] | 0.5
12 | COCCNC(=O)c1ccc(OCc2c(-c3ccccn3)noc2C)nc1 [Example 285, (2-Methoxy-ethyl)-6-(5-methyl-3-pyridin-2-yl-isoxazol-4-ylmethoxy)-nicotinamide] | 1.1
13 | COC(=O)c1ccc(OCc2c(-c3ccc(F)cn3)noc2C)nc1 [Example 286, 6-[3-(5-Fluoro-pyridin-2-yl)-5-methyl-isoxazol-4-ylmethoxy]-nicotinic acid methyl ester] | 2
14 | Cc1onc(-c2ccc(F)cn2)c1COc1ccc(C(=O)O)cn1 [Example 287, 6-[3-(5-Fluoro-pyridin-2-yl)-5-methyl-isoxazol-4-ylmethoxy]-nicotinic acid] | 19.2
15 | Cc1onc(-c2ccc(F)cn2)c1COc1ccc(C(=O)NC2CCOCC2)cn1 [Example 288, 6-[3-(5-Fluoro-pyridin-2-yl)-5-methyl-isoxazol-4-ylmethoxy]-(tetrahydro-pyran-4-yl)-nicotinamide] | 0.4
16 | Cc1onc(-c2ccc(F)cn2)c1COc1ccc(C(=O)NC2CC2)cn1 [Example 290, Cyclopropyl-6-[3-(5-fluoro-pyridin-2-yl)-5-methyl-isoxazol-4-ylmethoxy]-nicotinamide] | 0.6
17 | Cc1onc(-c2ccc(F)cn2)c1COc1ccc(C(=O)NC(C)(C)CO)cn1 [Example 291, 6-[3-(5-Fluoro-pyridin-2-yl)-5-methyl-isoxazol-4-ylmethoxy](2-hydroxy-1,1-dimethyl-ethyl)-nicotinamide] | 1.2
18 | Cc1onc(-c2ccc(F)cn2)c1COc1ccc(C(=O)NCC2CC2)cn1 [Example 292, Cyclopropylmethyl-6-[3-(5-fluoro-pyridin-2-yl)-5-methyl-isoxazol-4-ylmethoxy]-nicotinamide] | 0.4
19 | Cc1onc(-c2ccc(F)cn2)c1COc1ccc(C(=O)N2CCS(=O)(=O)CC2)cn1 [Example 293, (1,1-Dioxo-1,6-thiomorpholin-4-yl)-{6-[3-(5-fluoro-pyridin-2-yl)-5-methyl-isoxazol-4-ylmethoxy]-pyridin-3-yl}-methanone] | 1.2
20 | Cc1onc(-c2ccc(F)cn2)c1COc1ccc(C(=O)NCC(F)(F)F)cn1 [Example 294] | 0.3
21 | Cc1onc(-c2ccc(F)cn2)c1COc1ccc(C(=O)NCCO)cn1 [Example 295, 6-[3-(5-Fluoro-pyridin-2-yl)-5-methyl-isoxazol-4-ylmethoxy]-(2-hydroxy-ethyl)-nicotinamide] | 0.4

Row | SMILES | Ki [nM]
22 | Cc1onc(-c2ccc(F)cn2)c1COc1ccc(C(=O)N2CCOCC2)cn1 [Example 296, {6-[3-(5-Fluoro-pyridin-2-yl)-5-methyl-isoxazol-4-ylmethoxy]-pyridin-3-yl}-morpholin-4-yl-methanone] | 4.1
23 | CCNC(=O)c1ccc(OCc2c(-c3ccc(F)cn3)noc2C)nc1 [Example 297, Ethyl-6-[3-(5-fluoro-pyridin-2-yl)-5-methyl-isoxazol-4-ylmethoxy]-nicotinamide] | 0.5
24 | CNC(=O)c1ccc(OCc2c(-c3ccc(F)cn3)noc2C)nc1 [Example 298, 6-[3-(5-Fluoro-pyridin-2-yl)-5-methyl-isoxazol-4-ylmethoxy]-methyl-nicotinamide] | 0.6
25 | Cc1onc(-c2ccc(F)cn2)c1COc1ccc(C(=O)N[C@@H](C)C(F)(F)F)cn1 [Example 299, 6-[3-(5-Fluoro-pyridin-2-yl)-5-methyl-isoxazol-4-ylmethoxy]-N—((S)-2,2,2-trifluoro-1-methyl-ethyl)-nicotinamide] | 0.5
26 | COC(=O)c1ccc(OCc2c(-c3ccc(Cl)cn3)noc2C)nc1 [Example 300, 6-[3-(5-Chloro-pyridin-2-yl)-5-methyl-isoxazol-4-ylmethoxy]-nicotinic acid methyl ester] | 1.6
27 | Cc1onc(-c2ccc(Cl)cn2)c1COc1ccc(C(=O)NC2CCOCC2)cn1 [Example 301, 6-[3-(5-Chloro-pyridin-2-yl)-5-methyl-isoxazol-4-ylmethoxy]-(tetrahydro-pyran-4-yl)-nicotinamide] | 0.3
28 | Cc1onc(-c2ccc(Cl)cn2)c1COc1ccc(C(=O)NC(C)C)cn1 [Example 302, 6-[3-(5-Chloro-pyridin-2-yl)-5-methyl-isoxazol-4-ylmethoxy]-isopropyl-nicotinamide] | 0.3
29 | Cc1onc(-c2ccc(Cl)cn2)c1COc1ccc(C(=O)NC2CC2)cn1 [Example 303, 6-[3-(5-Chloro-pyridin-2-yl)-5-methyl-isoxazol-4-ylmethoxy]-cyclopropyl-nicotinamide] | 0.3
30 | Cc1onc(-c2ccc(Cl)cn2)c1COc1ccc(C(=O)O)cn1 [Example 304, 6-[3-(5-Chloro-pyridin-2-yl)-5-methyl-isoxazol-4-ylmethoxy]-nicotinic acid] | 3.8
31 | Cc1onc(-c2ccc(Cl)cn2)c1COc1ccc(C(=O)NC(C)(C)CO)cn1 [Example 305, 6-[3-(5-Chloro-pyridin-2-yl)-5-methyl-isoxazol-4-ylmethoxy]-(2-hydroxy-1,1-dimethyl-ethyl)-nicotinamide] | 0.6
32 | Cc1onc(-c2ccc(Cl)cn2)c1COc1ccc(C(=O)NCC2CC2)cn1 [Example 306, 6-[3-(5-Chloro-pyridin-2-yl)-5-methyl-isoxazol-4-ylmethoxy]-cyclopropylmethyl-nicotinamide] | 0.3
33 | Cc1onc(-c2ccc(Cl)cn2)c1COc1ccc(C(=O)N2CCS(=O)(=O)CC2)cn1 [Example 307, {6-[3-(5-Chloro-pyridin-2-yl)-5-methyl-isoxazol-4-ylmethoxy]-pyridin-3-yl}-(1,1-dioxo-1,6-thiomorpholin-4-yl)-methanone] | 0.6
34 | Cc1onc(-c2ccc(Cl)cn2)c1COc1ccc(C(=O)NCC(F)(F)F)cn1 [Example 308, 6-[3-(5-Chloro-pyridin-2-yl)-5-methyl-isoxazol-4-ylmethoxy]-(2,2,2-trifluoro-ethyl)-nicotinamide] | 0.2
35 | Cc1onc(-c2ccc(Cl)cn2)c1COc1ccc(C(=O)N2CCOCC2)cn1 [Example 309, {6-[3-(5-Chloro-pyridin-2-yl)-5-methyl-isoxazol-4-ylmethoxy]-pyridin-3-yl}-morpholin-4-yl-methanone] | 0.6
36 | Cc1onc(-c2ccc(Cl)cn2)c1COc1ccc(C(=O)NCCO)cn1 [Example 311, 6-[3-(5-Chloro-pyridin-2-yl)-5-methyl-isoxazol-4-ylmethoxy]-(2-hydroxy-ethyl)-nicotinamide] | 0.1
37 | COC(=O)c1ccc(OCc2c(-c3ccncn3)noc2C)nc1 [Example 312, 6-(5-Methyl-3-pyrimidin-4-yl-isoxazol-4-ylmethoxy)-nicotinic acid methyl ester] | 11.3
38 | Cc1onc(-c2ccncn2)c1COc1ccc(C(=O)NC(C)C)cn1 [Example 313, N-Isopropyl-6-(5-methyl-3-pyrimidin-4-yl-isoxazol-4-ylmethoxy)-nicotinamide] | 3
39 | Cc1onc(-c2ccncn2)c1COc1ccc(C(=O)NC2CC2)cn1 [Example 314, N-Cyclopropyl-6-(5-methyl-3-pyrimidin-4-yl-isoxazol-4-ylmethoxy)-nicotinamide] | 5.6
40 | Cc1onc(-c2ccncn2)c1COc1ccc(C(=O)NC(C)(C)CO)cn1 [Example 315, N-(2-Hydroxy-1,1-dimethyl-ethyl)-6-(5-methyl-3-pyrimidin-4-yl-isoxazol-4-ylmethoxy)-nicotinamide] | 8.1
41 | Cc1onc(-c2ccncn2)c1COc1ccc(C(=O)N2CCOCC2)cn1 [Example 316, [6-(5-Methyl-3-pyrimidin-4-yl-isoxazol-4-ylmethoxy)-pyridin-3-yl]-morpholin-4-yl-methanone] | 36.2
